Source: PubChem BioAssay (NCI)
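Test compounds were applied to cells in 96-well plates for 48 hours at 5 doses. The concentration for full growth arrest is given as TGI.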

Key:
Assay in all cases: NCI anticancer screen, dose series, 48 h
[1] = test system: HCC-2998 colon
[2] = test system: MDA-N
[3] = test system: MDA-MB-435
[4] = test system: PC-3 prostate
[5] = test system: MALME-3M melanoma
[6] = test system: NCI-H460 lung
[7] = test system: K-562 leukemia
[8] = test system: HOP-92 NSCLC
[9] = test system: SF-268 CNS
[10] = test system: T-47D breast
[11] = test system: SN12C renal
[12] = test system: HCT-15 colon
[13] = test system: KM12 colon
[14] = test system: A498 renal
[15] = test system: OVCAR-3 ovarian
[16] = test system: SF-295 CNS
[17] = test system: SK-MEL-2 melanoma
[18] = test system: ACHN renal
[19] = test system: NCI-H226 lung
[20] = test system: CAKI-1 renal
[21] = test system: IGROV1 ovarian
[22] = test system: HS 578T breast
[23] = test system: CCRF-CEM leukemia
[24] = test system: MCF7 breast
[25] = test system: 786-0 renal
[26] = test system: OVCAR-8 ovarian
[27] = test system: SK-MEL-28 melanoma
[28] = test system: SK-OV-3 ovarian
[29] = test system: SW-620 colon
[30] = test system: MDA-MB-231 breast
[31] = test system: SNB-75 CNS
[32] = test system: EKVX NSCLC
[33] = test system: TK-10 renal
[34] = test system: HCT-116 colon
[35] = test system: A549 NSCLC
[36] = test system: NCI-H23 lung
[37] = test system: MOLT-4 leukemia
[38] = test system: NCI-H522 lung
[39] = test system: U251 CNS
[40] = test system: RPMI-8226 leukemia
[41] = test system: DU-145 prostate
[42] = test system: SF-539 CNS
[43] = test system: UO-31 renal
[44] = test system: SK-MEL-5 melanoma
[45] = test system: M14 melanoma
[46] = test system: OVCAR-4 ovarian
[47] = test system: UACC-257 melanoma
[48] = test system: HT29 colon
[49] = test system: LOX IMVI melanoma
[50] = test system: NCI/ADR-RES ovarian
[51] = test system: SNB-19 CNS
[52] = test system: HOP-62 NSCLC
[53] = test system: UACC-62 melanoma
[54] = test system: OVCAR-5 ovarian
[55] = test system: RXF 393 renal
[56] = test system: COLO 205 colon
[57] = test system: SR leukemia
[58] = test system: BT-549 breast
[59] = test system: HL-60(TB) leukemia

Work on `CC1Cc2cc(O)c(O)cc2-c2cc(O)c(O)cc2CC1C` (stereo not given) yielded a TGI [1] of 43.1 µM, a TGI [2] of 11.7 µM and a TGI [3] of 10.5 µM. For the same molecule, the TGI [4] was 61.5 µM, the TGI [5] was 20.6 µM and the TGI [6] was 42.7 µM. For the same molecule, the TGI [7] was 39.5 µM, the TGI [8] was 46.7 µM and the TGI [9] was over 100 µM. The TGI [10] was 63.7 µM, the TGI [11] was 49 µM and the TGI [12] was 36.1 µM. It also gave a TGI [13] of 14 µM, a TGI [14] of 56.8 µM and a TGI [15] of 29.3 µM. For the same molecule, the TGI [16] was 20.8 µM, the TGI [17] was 15 µM and the TGI [18] was 87.1 µM. For the same molecule, the TGI [19] was 67.8 µM, the TGI [20] was 48.3 µM and the TGI [21] was 47 µM. The TGI [22] was 61.7 µM, the TGI [23] was over 100 µM and the TGI [24] was 37.1 µM. It also gave a TGI [25] of 39.9 µM, a TGI [26] of 53.3 µM and a TGI [27] of 43.6 µM. It also gave a TGI [28] of over 100 µM, a TGI [29] of 42.5 µM and a TGI [30] of 24.5 µM. For the same molecule, the TGI [31] was over 100 µM, the TGI [32] was 96.2 µM and the TGI [33] was 86.4 µM. It also gave a TGI [34] of 34.5 µM, a TGI [35] of 71.1 µM and a TGI [36] of 38.6 µM. For the same molecule, the TGI [37] was 32.3 µM, the TGI [38] was 49.8 µM and the TGI [39] was 32.6 µM. It also gave a TGI [40] of over 100 µM, a TGI [41] of over 100 µM and a TGI [42] of 19.6 µM. The TGI [43] was 85.3 µM, the TGI [44] was 17.4 µM and the TGI [45] was 29.7 µM. For the same molecule, the TGI [46] was 33.9 µM, the TGI [47] was 29.1 µM and the TGI [48] was 63.9 µM. It also gave a TGI [49] of 23.1 µM, a TGI [50] of 38.4 µM and a TGI [51] of 96.2 µM. For the same molecule, the TGI [52] was 41.9 µM, the TGI [53] was 19.3 µM and the TGI [54] was 45.6 µM. For the same molecule, the TGI [55] was 56.4 µM, the TGI [56] was 32.1 µM and the TGI [57] was 33 µM.
For `Cc1sc(C)c2c1C(=O)CC2N` (stereo not given), the TGI [1] was 35.1 µM, the TGI [2] was over 57.4 µM and the TGI [3] was 53.6 µM. For the same molecule, the TGI [4] was over 60.6 µM, the TGI [5] was 28.4 µM and the TGI [6] was over 70.2 µM. For the same molecule, the TGI [7] was over 56.1 µM, the TGI [8] was 40.7 µM and the TGI [9] was over 57.3 µM. It also gave a TGI [10] of over 83 µM, a TGI [11] of over 58.6 µM and a TGI [12] of over 58.3 µM. For the same molecule, the TGI [13] was over 46.4 µM, the TGI [14] was over 100 µM and the TGI [15] was 32.8 µM. For the same molecule, the TGI [16] was over 100 µM, the TGI [17] was over 100 µM and the TGI [18] was 31.2 µM. It also gave a TGI [19] of over 54.9 µM, a TGI [20] of 28.9 µM and a TGI [21] of over 69 µM. It also gave a TGI [22] of 98 µM, a TGI [23] of 6.68 µM and a TGI [25] of 22.5 µM. It also gave a TGI [26] of 44.9 µM, a TGI [27] of over 62.5 µM and a TGI [28] of over 100 µM. It also gave a TGI [29] of 26.3 µM, a TGI [30] of 57 µM and a TGI [31] of over 83.1 µM. The TGI [32] was over 100 µM, the TGI [33] was 33.5 µM and the TGI [34] was 28.9 µM. It also gave a TGI [35] of over 100 µM, a TGI [58] of 43.7 µM and a TGI [36] of over 96.2 µM. For the same molecule, the TGI [37] was 23.7 µM, the TGI [38] was 10.9 µM and the TGI [39] was over 100 µM. For the same molecule, the TGI [40] was 49.2 µM, the TGI [59] was 22.9 µM and the TGI [41] was 30.3 µM. It also gave a TGI [42] of 14.2 µM, a TGI [43] of 29.5 µM and a TGI [44] of over 100 µM. For the same molecule, the TGI [45] was 27.6 µM, the TGI [46] was over 75.6 µM and the TGI [47] was 33.3 µM. For the same molecule, the TGI [48] was over 59.3 µM, the TGI [49] was 32.2 µM and the TGI [50] was over 100 µM. For the same molecule, the TGI [51] was over 100 µM, the TGI [52] was over 100 µM and the TGI [53] was over 100 µM. For the same molecule, the TGI [54] was over 100 µM, the TGI [55] was 34.8 µM and the TGI [56] was 40.1 µM. The TGI [57] was over 100 µM.
